# Assay results published in patent US10160771B2, “Hepatitis C virus inhibitors and uses thereof in preparation of drugs” (priority 2014, dated 2018).
# Legend:
# [1] = tested on: HCV genotype 1b (HCV-1b) replicon cells; assay: HCV genotype 1b replicon luciferase assay (EC50); assay type: cell-based, hepatitis C virus genotype 1b (Con1 clone); details: 3 days, luciferase (Bright-Glo)
# In short: (§1)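 Replicon cells, 8000/well, 3 d, 37 °C; 6-pt 5-fold dilution from 100, 10 or 1 nM, 0.5% DMSO, duplicates; Bright-Glo luminescence → EC50 (nonlinear fit). 1a = H77 K1691R/K2040R/S2204I; 1b = Con1 E1202G/T1280I/K1846T.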
# [2] = tested on: HCV genotype 1a (HCV-1a) replicon cells; assay: HCV genotype 1a replicon luciferase assay (EC50); assay type: cell-based, hepatitis C virus genotype 1a (H77 clone); details: 3 days, luciferase (Bright-Glo)
# In short: as §1
# [3] = Cell Titer-fluor cell activity assay in HCV-1b replicon cells (CC50); assay type: cell-based
# In short: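 CC50 derived by nonlinear fitting of inhibition % from Cell Titer-fluor signal (405/515 nm, 30 min). Cells: genotype 1b Con1 replicon carrying E1202G, T1280I, K1846T, seeded 8000/well with compound for 3 days, 37 °C, 0.5% DMSO; 6 points, 5-fold dilution, top 100, 10 or 1 nM, duplicates.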
SMILES,"EC50 ([1]; Hepatitis C virus, 72 h) [nM]","EC50 ([2]; Hepatitis C virus, 72 h) [nM]",CC50 at 3 days [3] [nM],EC50 [1] [nM],EC50 [2] [nM]
COC(=O)N[C@H](C(=O)N1CCC[C@H]1c1ncc(-c2ccc(-c3ccc(-c4ccc([C@@H]5CCCN5C(=O)N(NC(=O)OC)C(C)C)[nH]4)cc3)cc2)[nH]1)C(C)C [AG_081_A],0.101 to 1,10 to 100,> 5,–,–
COC(=O)NC(C(=O)N1CCCC1c1ccc(-c2ccc3c(c2)C(C)(C)c2cc(-c4cnc([C@@H]5CCCN5C(=O)[C@@H](NC(=O)OC)C(C)C)[nH]4)ccc2-3)[nH]1)[C@@H](C)OC (stereo partly drawn) [AG_085],0.001 to 0.1,10 to 100,> 1,–,–
COC(=O)N[C@H](C(=O)N1CCC[C@H]1c1ncc(-c2ccc(-c3ccc(-c4cnc(C5C6CCC(C6)[C@@H]5C(=O)Nc5ccccc5)[nH]4)cc3)cc2)[nH]1)[C@@H](C)OC (stereo partly drawn) [AA_246_A],0.001 to 0.1,10 to 100,> 1,–,–
COC(=O)N[C@H](C(=O)N1CCC[C@H]1c1ncc(-c2ccc(-c3ccc(-c4cnc([C@@H]5C6CCC(C6)[C@H]5C(=O)NCc5cccc(N)c5)[nH]4)cc3)cc2)[nH]1)C(C)C (stereo partly drawn) [AA_199_B],0.001 to 0.1,10 to 100,> 1,–,–
COC(=O)N[C@H](C(=O)N1CCC[C@H]1c1ncc(-c2ccc(-c3ccc(-c4cnc(C5C6CCC(C6)[C@@H]5C(=O)NNc5cccnc5)[nH]4)cc3)cc2)[nH]1)[C@@H](C)OC (stereo partly drawn) [AA_258_B],1 to 10,10 to 100,> 1,–,–
COC(=O)N[C@H](C(=O)N1CCC[C@H]1c1[nH]c(-c2ccc(-c3ccc(-c4[nH]c([C@@H]5CCCN5C(=O)[C@@H](NC(=O)OC)[C@@H](C)OC)c5c4COC5)cc3)cc2)c2c1COC2)[C@@H](C)OC [AG_088_A],0.001 to 0.1,0.101 to 1,> 1,–,–
COC(=O)N[C@H](C(=O)N1CCC[C@H]1c1[nH]c(-c2ccc(-c3ccc(-c4cnc([C@@H]5CCCN5C(=O)[C@@H](NC(=O)OC)[C@@H](C)OC)[nH]4)cc3)cc2)c2c1CCC2)C(C)C [AG_066],0.001 to 0.1,1 to 10,> 1,–,–
COC(=O)N[C@H](C(=O)N1CCC[C@H]1c1ncc(-c2ccc(-c3ccc(-c4cnc(C5C6CCC(C6)[C@@H]5C(=O)NC(C)c5cccnc5)[nH]4)cc3)cc2)[nH]1)[C@@H](C)OC (stereo partly drawn) [AA_251_C],1 to 10,10 to 100,> 1,–,–
COC(=O)N[C@H](C(=O)N1CCC[C@H]1c1ncc(-c2ccc(-c3ccc(-c4cnc([C@H]5C6CCC(C6)[C@@H]5C(=O)NCc5cccnc5C)[nH]4)cc3)cc2)[nH]1)C(C)C (stereo partly drawn) [AA_217],1 to 10,10 to 100,> 1,–,–
COC(=O)N[C@H](C(=O)N1CCC[C@H]1c1ncc(-c2ccc(-c3ccc(-c4cnc([C@@H]5C6CCC(C6)[C@H]5C(=O)NC(c5cccnc5)C(C)C)[nH]4)cc3)cc2)[nH]1)C(C)C (stereo partly drawn) [AA_233_B],0.001 to 0.1,1 to 10,> 1,–,–
COC(=O)N[C@H](C(=O)N1CCC[C@H]1c1ncc(-c2ccc(-c3ccc(-c4cnc(C5C6CCC(C6)[C@@H]5C(=O)NCc5cccnc5C(F)(F)F)[nH]4)cc3)cc2)[nH]1)[C@@H](C)OC (stereo partly drawn) [AA_255_A],0.001 to 0.1,10 to 100,> 1,–,–
COC(=O)N[C@H](C(=O)N1CCC[C@H]1c1ncc(-c2ccc(-c3ccc(-c4cnc([C@@H]5C6CCC(C6)[C@H]5C(=O)NCc5cccnc5C(F)(F)F)[nH]4)cc3)cc2)[nH]1)C(C)C (stereo partly drawn) [AA_216_B],0.001 to 0.1,10 to 100,> 1,–,–
COC(=O)N[C@H](C(=O)N1CCC[C@H]1c1ncc(-c2ccc(-c3ccc(-c4cnc(C5C6CCC(C6)[C@H]5C(=O)N[C@H](C)c5cccnc5)[nH]4)cc3)cc2)[nH]1)[C@@H](C)OC (stereo partly drawn) [AA_253_B],0.101 to 1,10 to 100,> 1,–,–
COC(=O)N[C@H](C(=O)N1CCC[C@H]1c1ncc(-c2ccc(-c3ccc(-c4[nH]c([C@H]5CCCN5C(=O)[C@@H](NC(=O)OC)[C@@H](C)OC)c5c4CCCC5)cc3)cc2)[nH]1)C(C)C [AG_078_B],0.101 to 1,10 to 100,> 5,–,–
COC(=O)N[C@H](C(=O)N1CCC[C@H]1c1ncc(-c2ccc(-c3ccc(-c4cnc([C@H]5CCCC[C@@H]5C(=O)NCc5cncc(C)c5)[nH]4)cc3)cc2)[nH]1)C(C)C [AA_184],0.101 to 1,10 to 100,> 5,–,–
COC(=O)N[C@H](C(=O)N1CCC[C@H]1c1ncc(-c2ccc(-c3ccc(-c4cnc(C5C6CCC(C6)[C@@H]5C(=O)NCCO)[nH]4)cc3)cc2)[nH]1)[C@@H](C)OC (stereo partly drawn) [AA_220_B],1 to 10,10 to 100,> 1,–,–
COC(=O)N[C@H](C(=O)N1CCCC1c1ncc(-c2ccc(-c3ccc(-c4cnc([C@H]5C6CCC(C6)C5C(=O)NCc5cccnc5)[nH]4)cc3)c(F)c2)[nH]1)[C@@H](C)OC (stereo partly drawn) [AA_280_B],0.001 to 0.1,0.101 to 1,> 1,–,–

SMILES,"EC50 ([1]; Hepatitis C virus, 72 h) [nM]","EC50 ([2]; Hepatitis C virus, 72 h) [nM]",CC50 at 3 days [3] [nM],EC50 [1] [nM],EC50 [2] [nM]
COC(=O)N[C@H](C(=O)N1CCC[C@H]1c1ncc(-c2ccc(-c3ccc(-c4cnc([C@H]5C6CCC(C6)[C@@H]5C(=O)NCc5ccc(N)cc5)[nH]4)cc3)cc2)[nH]1)[C@@H](C)OC (stereo partly drawn) [AA_227],0.101 to 1,10 to 100,> 1,–,–
COC(=O)N[C@H](C(=O)N1CCC[C@H]1c1ncc(-c2ccc(-c3ccc(-c4cnc([C@@H]5C6CCC(C6)[C@H]5C(=O)NCc5ccc(F)nc5)[nH]4)cc3)cc2)[nH]1)C(C)C (stereo partly drawn) [AA_214_B],0.001 to 0.1,10 to 100,> 1,–,–
COC(=O)N[C@H](C(=O)N1CCC[C@H]1c1ncc(-c2ccc(-c3ccc(-c4cnc([C@H]5C6CCC(C6)[C@@H]5C(=O)N(C)c5ccccn5)[nH]4)cc3)cc2)[nH]1)C(C)C (stereo partly drawn) [AA_195_A],0.001 to 0.1,0.101 to 1,> 1,–,–
COC(=O)N[C@H](C(=O)N1CCC[C@H]1c1ccc(-c2ccc(-c3ccc(-c4cnc([C@@H]5CCCCN5C(=O)[C@@H](NC(=O)OC)[C@@H](C)OC)[nH]4)cc3)cc2)[nH]1)[C@@H](C)OC [AG_120],0.001 to 0.1,1 to 10,> 1,–,–
COC(=O)N[C@H](C(=O)N1CCC[C@H]1c1ncc(-c2ccc(-c3ccc(-c4cnc([C@H]5C6CCC(C6)[C@@H]5C(=O)NCc5cncnc5)[nH]4)cc3)cc2)[nH]1)C(C)C (stereo partly drawn) [AA_201_A],0.001 to 0.1,0.101 to 1,> 1,–,–
COC(=O)N[C@H](C(=O)N1CCC[C@H]1c1ncc(-c2ccc(-c3ccc(-c4cnc(C5C6CCC(C6)[C@H]5C(=O)Nc5ccccc5)[nH]4)cc3)cc2)[nH]1)[C@@H](C)OC (stereo partly drawn) [AA_246_B],0.101 to 1,10 to 100,> 1,–,–
COC(=O)N[C@H](C(=O)N1CCC[C@H]1c1ncc(-c2ccc(-c3ccc(-c4cnc(C5C6CCC(C6)[C@@H]5C(=O)NCc5ccco5)[nH]4)cc3)cc2)[nH]1)[C@@H](C)OC (stereo partly drawn) [AA_222_A],0.001 to 0.1,10 to 100,> 1,–,–
COC(=O)N[C@H](C(=O)N1CCC[C@H]1c1ncc(-c2ccc(-c3ccc(-c4[nH]c([C@@H]5CCCN5C(=O)[C@@H](NC(=O)OC)C(C)C)c5c4COC5)cc3)cc2)[nH]1)C(C)C [AG_060_B],0.001 to 0.1,0.001 to 0.1,> 10,–,–
COC(=O)N[C@H](C(=O)N1CCC[C@@H]1c1[nH]c(-c2ccc(-c3ccc(-c4cnc([C@@H]5CCCN5C(=O)[C@@H](NC(=O)OC)C(C)C)[nH]4)cc3)cc2)c2c1CCO2)C(C)C [AG_122_B],0.101 to 1,10 to 100,> 1,–,–
COC(=O)N[C@H](C(=O)N1CCC[C@@H]1c1[nH]c(-c2ccc(-c3ccc(-c4cnc([C@@H]5CCCN5C(=O)[C@@H](NC(=O)OC)[C@@H](C)OC)[nH]4)cc3)cc2)c2c1COC2)C(C)OC (stereo partly drawn) [AG_080_B],0.101 to 1,1 to 10,> 5,–,–
"COC(=O)N[C@H](C(=O)N1CCC[C@H]1c1ncc(-c2ccc(-c3ccc(-c4cnc(C5C6CCC(C6)[C@@H]5C(=O)NC(C)c5cnccn5)[nH]4)cc3)cc2)[nH]1)[C@@H](C)OC (single isomer, unassigned) [AA_281_A]",–,–,> 1,0.001 to 0.1,0.101 to 1
COC(=O)N[C@H](C(=O)N1CCC[C@H]1c1ncc(-c2ccc(-c3ccc(-c4cnc([C@@H]5[C@H]6CC[C@H](C6)[C@H]5C(=O)N[C@H](c5cccnc5)C(C)C)[nH]4)cc3)cc2)[nH]1)C(C)C [AA_233_ENDOA2_A],0.001 to 0.1,0.101 to 1,> 1,–,–
COC(=O)N[C@H](C(=O)N1CCC[C@H]1c1ncc(-c2ccc(-c3ccc(-c4[nH]c([C@H]5CCCN5C(=O)[C@@H](NC(=O)OC)C(C)OC)c5c4COC5)cc3)cc2)[nH]1)C(C)C (stereo partly drawn) [AG_079_B],0.101 to 1,1 to 10,> 5,–,–
COC(=O)N[C@H](C(=O)N1CCC[C@H]1c1ncc(-c2ccc(-c3ccc(-c4cnc([C@@H]5C6CCC(C6)[C@H]5C(=O)NC(C)c5cccnc5)[nH]4)cc3)cc2)[nH]1)C(C)C (stereo partly drawn) [AA_204_B],0.001 to 0.1,1 to 10,> 1,–,–
COC(=O)N[C@H](C(=O)N1CCC[C@H]1c1ncc(-c2ccc(-c3ccc(-c4ccc([C@H]5CCCN5C(=O)N(NC(=O)OC)C(C)C)[nH]4)cc3)cc2)[nH]1)C(C)C [AG_081_B],0.001 to 0.1,10 to 100,> 1,–,–
COC(=O)N[C@H](C(=O)N1CCC[C@H]1c1ncc(-c2ccc(-c3ccc(-c4cnc([C@@H]5[C@H]6CC[C@H](C6)[C@H]5C(=O)N[C@@H](C)c5cnccn5)[nH]4)cc3)cc2)[nH]1)C(C)C [AA_270_ENDOA2_A],0.001 to 0.1,0.001 to 0.1,> 1,–,–
